The source of these data is US20240083857A1, “2-Methyl-Quinazolines” (Bayer Pharma Aktiengesellschaft, priority 2017, published 2024).

Experiment [1] concerns the target K-Ras^G12C : hSOS1 interaction (Homo sapiens, UniProt Q07889). The experiment is described as follows: Biochemical assay 1: K-Ras^G12C interaction assay with hSOS1 (HTRF). The class given is binding. Particulars: for IC50: read-out: Assay 1 (KRAS-SOS Interaction) activity expressed as IC50; for inhibition at 20 µM: read-out: Assay 1 (KRAS-SOS Interaction) activity expressed as % inhibition at 20 μM. Background: TR-FRET usually uses a lanthanide donor and a delayed reading to cut background.

The target of experiment [2] is human SOS1 (loading of human K-Ras^G12C-GDP with fluorescent GTP-analog) (Homo sapiens, UniProt Q07889). The experiment in a line: Biochemical assay 3: K-Ras^G12C activation assay by hSOS1 (HTRF). Particulars: no GTP; for IC50: read-out: Assay 3 (KRAS-Activation by SOS no GTP) activity expressed as IC50; for inhibition at 20 µM: read-out: Assay 3 (KRAS-Activation by SOS no GTP) activity expressed as % inhibition at 20 μM.

Experiment [3] has as its target human SOS1 (nucleotide exchange of K-Ras^G12C) (Homo sapiens, UniProt Q07889). The experiment is described as follows: Biochemical assay 2: K-Ras^G12C activation assay by hSOS1 at high GTP concentration (HTRF). Particulars: high GTP; for IC50: read-out: Assay 2 (KRAS-Activation by SOS high GTP) activity expressed as IC50; for inhibition at 20 µM: read-out: Assay 2 (KRAS-Activation by SOS high GTP) activity expressed as % inhibition at 20 μM.

Regarding `COc1cc2nc(C)nc(N[C@H](C)c3cccc(-c4cnc(N)nc4)c3)c2cc1OC` [Example 62, N-{(1R)-1-[3-(2-aminopyrimidin-5-yl)phenyl]ethyl}-6,7-dimethoxy-2-methylquinazolin-4-amine], the IC50 turned out to be 1260 nM in experiment [1], 2630 nM in experiment [2] and 2770 nM in experiment [3].
For `CCCOc1ccccc1-c1ccc([C@H](C)Nc2nc(C)nc3cc(OC)c(OC)cc23)s1` (stereo in doubt) [Example 47, 6,7-dimethoxy-2-methyl-N-{1-[5-(2-propoxyphenyl)thiophen-2-yl]ethyl}quinazolin-4-amine], the figures for the inhibition at 20 µM in experiment [1], in experiment [2] and in experiment [3] were 40%, 17% and 22%, respectively.
`COc1cc2nc(C)nc(N[C@@H](C)c3ccc(-c4ccc(C(=O)NCCN(C)C)cc4)s3)c2cc1OC` (racemic) [Example 142, 4-(5-{1-[(6,7-dimethoxy-2-methylquinazolin-4-yl)amino]ethyl}thiophen-2-yl)-N-[2-(dimethylamino)ethyl]benzamide]: the concentration for half-maximal inhibition (IC50) was 1010 nM in experiment [1], 1020 nM in experiment [2] and 1810 nM in experiment [3].
For `COc1cc2nc(C)nc(N[C@@H](C)c3ccc(-c4ccccc4OC(F)(F)F)s3)c2cc1OC` (racemic) [Example 150, 6,7-dimethoxy-2-methyl-N-[1-{5-[2-(trifluoromethoxy)phenyl]thiophen-2-yl}ethyl]quinazolin-4-amine], in that order: 7360 nM, 13200 nM and 13200 nM.
For `COc1cc2nc(C)nc(N[C@@H](C)c3ccc(-c4ccc(C(C)(C)C#N)cc4)s3)c2cc1OC` (stereo in doubt) [Example 137, 2-[4-(5-{1-[(6,7-dimethoxy-2-methylquinazolin-4-yl)amino]ethyl}thiophen-2-yl)phenyl]-2-methylpropanenitrile], the inhibition at 20 µM in experiment [1] amounted to 48%; in experiment [2], 32%; in experiment [3], 36%.
With `COc1cc2nc(C)nc(N[C@@H](C)c3ccc(-c4ccoc4)s3)c2cc1OC` (racemic) [Example 153, N-{1-[5-(furan-3-yl)thiophen-2-yl]ethyl}-6,7-dimethoxy-2-methylquinazolin-4-amine], the IC50 stood at 2350 nM in experiment [1], 4100 nM in experiment [2] and 2730 nM in experiment [3].
In the case of `COc1cc2nc(C)nc(N[C@@H](C)c3ccc(-c4cccc(OCc5ccccc5)c4)s3)c2cc1OC` (stereo in doubt) [Example 135, N-[1-{5-[3-(benzyloxy)phenyl]thiophen-2-yl}ethyl]-6,7-dimethoxy-2-methylquinazolin-4-amine], the inhibition at 20 µM in experiment [1] was 28%; in experiment [2] it was 13%; in experiment [3] it was 5%.
As to `COc1cc2nc(C)nc(N[C@H](C)c3cccc(-c4ccc5c(c4)OCO5)c3)c2cc1OC` [Example 96, N-{(1R)-1-[3-(1,3-benzodioxol-5-yl)phenyl]ethyl}-6,7-dimethoxy-2-methylquinazolin-4-amine], the IC50 in experiment [1] is 1040 nM; in experiment [2], 1390 nM; in experiment [3], 1090 nM.
For the molecule `COc1cc2nc(C)nc(N[C@@H](C)c3ccc(-c4ccccc4S(C)(=O)=O)s3)c2cc1OC` (racemic) [Example 148, 6,7-dimethoxy-2-methyl-N-[1-{5-[2-(methylsulfonyl)phenyl]thiophen-2-yl}ethyl]quinazolin-4-amine], the half-inhibitory concentration (IC50) in experiment [1] worked out at 1410 nM; in experiment [2], 3060 nM; in experiment [3], 3400 nM.
Consider `COc1cc2nc(C)nc(N[C@H](C)c3cccc(-c4ccccc4S(C)(=O)=O)c3)c2cc1OC` [Example 120, 6,7-dimethoxy-2-methyl-N-{(1R)-1-[2′-(methylsulfonyl)biphenyl-3-yl]ethyl}quinazolin-4-amine], for which the concentration for half-maximal inhibition (IC50) in experiment [1] amounted to 1590 nM; in experiment [2], 3530 nM; in experiment [3] it was 2020 nM.
As for `CCCOc1ccc(Cl)cc1-c1cccc([C@@H](C)Nc2nc(C)nc3cc(OC)c(OC)cc23)c1` [Example 77, N-[(1R)-1-(5′-chloro-2′-propoxybiphenyl-3-yl)ethyl]-6,7-dimethoxy-2-methylquinazolin-4-amine], the concentration for half-maximal inhibition (IC50) in experiment [1] came to 7860 nM; in experiment [2], 19900 nM; in experiment [3], 9630 nM.
In the same order, the values of `COc1cc2nc(C)nc(N[C@H](C)c3cccc(-c4ccc(C(C)=O)s4)c3)c2cc1OC` [Example 95, 1-[5-(3-{(1R)-1-[(6,7-dimethoxy-2-methylquinazolin-4-yl)amino]ethyl}phenyl)thiophen-2-yl]ethanone] are 801 nM, 1080 nM and 473 nM.
As for `COc1cc2nc(C)nc(N[C@@H](C)c3ccc(-c4ccccc4)s3)c2cc1OC` (stereo in doubt) [Example 70, 6,7-dimethoxy-2-methyl-N-[1-(5-phenylthiophen-2-yl)ethyl]quinazolin-4-amine], the IC50 is 6820 nM in experiment [1] and 8620 nM in experiment [3]. Moreover, the inhibition at 20 µM in experiment [2] was 47%.
For `COc1cc2nc(C)nc(NC(C)c3cc(Br)cc4c3OCC4)c2cc1OC` (stereo not drawn) [Example 225, N-[1-(5-bromo-2,3-dihydro-1-benzofuran-7-yl)ethyl]-6,7-dimethoxy-2-methylquinazolin-4-amine], the IC50 in experiment [1] came out at 1540 nM; in experiment [2] it was 4680 nM; in experiment [3], 2270 nM.
With `Cc1nc(N[C@H](C)c2ccccc2)c2cc(Br)ccc2n1` [Example 29, 6-bromo-2-methyl-N-[(1R)-1-phenylethyl]quinazolin-4-amine], the IC50 in experiment [1] was 10200 nM; in experiment [3] it was 10900 nM. Besides, the inhibition at 20 µM in experiment [2] was 44%.
With `COc1cc2nc(C)nc(N[C@H](C)c3cccc(-c4cncc(S(C)(=O)=O)c4)c3)c2cc1OC` [Example 56, 6,7-dimethoxy-2-methyl-N-[(1R)-1-{3-[5-(methylsulfonyl)pyridin-3-yl]phenyl}ethyl]quinazolin-4-amine], the IC50 in experiment [1] is 1470 nM; in experiment [2] it was 2560 nM; in experiment [3] it was 1790 nM.
Consider `COc1cc2nc(C)nc(N[C@@H](C)c3ccc(-c4cccc5cnccc45)s3)c2cc1OC` (racemic) [Example 45, N-{1-[5-(isoquinolin-5-yl)thiophen-2-yl]ethyl}-6,7-dimethoxy-2-methylquinazolin-4-amine], for which the figures for the IC50 in experiment [1], in experiment [2] and in experiment [3] were 1510 nM, 1100 nM and 2170 nM, respectively.
For `COc1ncc(-c2cccc([C@@H](C)Nc3nc(C)nc4cc(OC)c(OC)cc34)c2)cn1` [Example 111, 6,7-dimethoxy-N-{(1R)-1-[3-(2-methoxypyrimidin-5-yl)phenyl]ethyl}-2-methylquinazolin-4-amine], in that order: 2100 nM, 3340 nM and 1670 nM.
In the same order, the values of `COc1cc2nc(C)nc(N[C@H](C)c3cccc(-c4c(F)ccc(C)c4Cl)c3)c2cc1OC` [Example 40, N-[(1R)-1-(2′-chloro-6′-fluoro-3′-methylbiphenyl-3-yl)ethyl]-6,7-dimethoxy-2-methylquinazolin-4-amine] are 3850 nM, 4550 nM and 1750 nM.

What is called IC50 is the concentration at which inhibition is half-maximal. As a reminder, the inhibition is the relative decrease from the control value, in per cent.
